Source: ChEMBL document CHEMBL5154853, “Synthesis and Pharmacological Evaluation of New N-Sulfonylureas as NLRP3 Inflammasome Inhibitors: Identification of a Hit Compound to Treat Gout” (J Med Chem, 2022)
Activity calls are given as the source filed them.

What was measured:
[1] = molecular target: NACHT, LRR and PYD domains-containing protein 3 (Mus musculus, UniProt Q8R4B8); experiment: Inhibition of NLRP3 inflammasome activation in LPS-primed mouse BMDM cells assessed as reduction in ATP induced IL-1beta release pretreated for 15 mins followed by ATP stimulation for 30 mins by ELISA; type: cell-based
AML12 = experiment: Cytotoxicity against mouse AML12 cells assessed as reduction in cell viability at 0.01 to 30 uM measured after 24 hrs by MTT assay; type: toxicity, cell-based; details: aml12, 24 h, dose 0.01-30 µM
J774.A1 [2] = experiment: Cytotoxicity against mouse J774.A1 cells assessed as reduction in cell viability at 30 uM measured after 24 hrs by MTT assay relative to control; type: toxicity, cell-based; details: j774.a1, 24 h
Mus musculus [3] = experiment: Antiinflammatory activity in MSU-induced acute gout arthritis in NLRP3 knock out C57BL/6J mouse model assessed as reduction in paw swelling at 3 mg/kg, ip measured after 24 hrs relative to control; type: functional; design: scale not given: the % may be the effect or the level left
Mus musculus [4] = experiment: Antiinflammatory activity in MSU-induced acute gout arthritis in wild type male C57BL/6J mouse model assessed as decrease in paw inflammation at 3 mg/kg, ip measured after 24 hrs; type: functional, organism-based
J774.A1 [5] = experiment: Cytotoxicity against mouse J774.A1 cells assessed as reduction in cell viability at 0.01 to 3 uM measured after 24 hrs by MTT assay; type: toxicity, cell-based; details: j774.a1, 24 h, dose 0.01-3 µM
J774.A1 [6] = experiment: Cytotoxicity against mouse J774.A1 cells assessed as reduction in cell viability at 10 uM measured after 24 hrs by MTT assay relative to control; type: toxicity, cell-based; details: j774.a1, 24 h
Mus musculus [7] = experiment: Antiinflammatory activity in MSU-induced acute gout arthritis in NLRP3 knockout male C57BL/6J mouse model assessed as reduction in paw inflammation at 3 to 10 mg/kg, ip measured after 24 hrs relative to control; type: functional; design: scale not given: the % may be the effect or the level left; details: dose 3-10 mg/kg
Mus musculus [8] = experiment: Antiinflammatory activity in MSU-induced acute gout arthritis in wild type male C57BL/6J mouse model assessed as decrease in paw inflammation at 10 mg/kg, ip measured after 24 hrs relative to control; type: functional; design: scale not given: the % may be the effect or the level left
Mus musculus [9] = experiment: Analgesic activity in MSU-induced mechanical hyperalgesia in wild type C57BL/6J mouse model assessed as decrease in paw withdrawal threshold at 3 mg/kg, ip measured after 24 hrs by von Frey test (Rvb= 72%); type: functional; design: scale not given: the % may be the effect or the level left
Mus musculus [10] = experiment: Antiinflammatory activity in MSU-induced acute gout arthritis in wild type female C57BL/6J mouse model assessed as decrease in paw inflammation at 10 mg/kg, ip measured after 24 hrs relative to control; type: functional; design: scale not given: the % may be the effect or the level left
[11] = molecular target: NACHT, LRR and PYD domains-containing protein 3 (Mus musculus) (UniProt Q8R4B8); experiment: Inhibition of NLRP3 inflammasome activation in LPS-primed mouse BMDM cells assessed as inhibition of caspase-1 cleavage in supernatant at 1 uM pretreated for 15 mins followed by ATP addition for 30 mins by Western blot analysis; type: cell-based; details: time 45.0 min
Mus musculus [12] = experiment: Antiinflammatory activity in MSU-induced acute gout arthritis in wild type male C57BL/6J mouse model assessed as decrease in paw inflammation at 3 mg/kg, ip measured after 24 hrs relative to control; type: functional; design: scale not given: the % may be the effect or the level left
Mus musculus [13] = experiment: Analgesic activity in MSU-induced mechanical hyperalgesia in wild type C57BL/6J mouse model assessed as decrease in paw withdrawal threshold at 10 mg/kg, ip measured after 24 hrs by von Frey test (Rvb= 72%); type: functional; design: scale not given: the % may be the effect or the level left
[14] = molecular target: NACHT, LRR and PYD domains-containing protein 3 (Mus musculus) (UniProt Q8R4B8); experiment: Inhibition of NLRP3 inflammasome oligomerization in LPS-primed mouse BMDM cells assessed as prevention of ASC specks formation at 1 uM pretreated for 15 mins followed by ATP stimulation for 30 mins by DAPI staining based confocal microscopic analysis; type: cell-based; details: time 45.0 min
Mus musculus [15] = experiment: Antiinflammatory activity in MSU-induced acute gout arthritis in wild type male C57BL/6J mouse model assessed as decrease in paw inflammation at 3 to 10 mg/kg, ip measured after 24 hrs; type: functional, organism-based; details: dose 3-10 mg/kg
Mus musculus [16] = experiment: Antiinflammatory activity in MSU-induced acute gout arthritis in wild type female C57BL/6J mouse model assessed as decrease in paw inflammation at 3 mg/kg, ip measured after 24 hrs relative to control; type: functional; design: scale not given: the % may be the effect or the level left
[17] = molecular target: NACHT, LRR and PYD domains-containing protein 3 (Mus musculus) (UniProt Q8R4B8); experiment: Inhibition of NLRP3 inflammasome activation in LPS-primed mouse BMDM cells assessed as inhibition of IL-1beta cleavage in supernatant at 1 uM pretreated for 15 mins followed by ATP addition for 30 mins by Western blot analysis; type: cell-based; details: time 45.0 min
[18] = molecular target: NACHT, LRR and PYD domains-containing protein 3 (Mus musculus) (UniProt Q8R4B8); experiment: Inhibition of NLRP3 inflammasome oligomerization in LPS-primed mouse BMDM cells assessed as prevention of ASC specks formation at 1 uM pretreated for 15 mins followed by MSU stimulation for 30 mins by DAPI staining based confocal microscopic analysis; type: cell-based; details: time 45.0 min
Mus musculus [19] = experiment: Antiinflammatory activity in MSU-induced acute gout arthritis in NLRP3 knockout female C57BL/6J mouse model assessed as reduction in paw inflammation at 3 to 10 mg/kg, ip measured after 24 hrs relative to control; type: functional; design: scale not given: the % may be the effect or the level left; details: dose 3-10 mg/kg

Chain of NACHT, LRR and PYD domains-containing protein 3 (Mus musculus) (Q8R4B8 whole entry, the tested form may be a part): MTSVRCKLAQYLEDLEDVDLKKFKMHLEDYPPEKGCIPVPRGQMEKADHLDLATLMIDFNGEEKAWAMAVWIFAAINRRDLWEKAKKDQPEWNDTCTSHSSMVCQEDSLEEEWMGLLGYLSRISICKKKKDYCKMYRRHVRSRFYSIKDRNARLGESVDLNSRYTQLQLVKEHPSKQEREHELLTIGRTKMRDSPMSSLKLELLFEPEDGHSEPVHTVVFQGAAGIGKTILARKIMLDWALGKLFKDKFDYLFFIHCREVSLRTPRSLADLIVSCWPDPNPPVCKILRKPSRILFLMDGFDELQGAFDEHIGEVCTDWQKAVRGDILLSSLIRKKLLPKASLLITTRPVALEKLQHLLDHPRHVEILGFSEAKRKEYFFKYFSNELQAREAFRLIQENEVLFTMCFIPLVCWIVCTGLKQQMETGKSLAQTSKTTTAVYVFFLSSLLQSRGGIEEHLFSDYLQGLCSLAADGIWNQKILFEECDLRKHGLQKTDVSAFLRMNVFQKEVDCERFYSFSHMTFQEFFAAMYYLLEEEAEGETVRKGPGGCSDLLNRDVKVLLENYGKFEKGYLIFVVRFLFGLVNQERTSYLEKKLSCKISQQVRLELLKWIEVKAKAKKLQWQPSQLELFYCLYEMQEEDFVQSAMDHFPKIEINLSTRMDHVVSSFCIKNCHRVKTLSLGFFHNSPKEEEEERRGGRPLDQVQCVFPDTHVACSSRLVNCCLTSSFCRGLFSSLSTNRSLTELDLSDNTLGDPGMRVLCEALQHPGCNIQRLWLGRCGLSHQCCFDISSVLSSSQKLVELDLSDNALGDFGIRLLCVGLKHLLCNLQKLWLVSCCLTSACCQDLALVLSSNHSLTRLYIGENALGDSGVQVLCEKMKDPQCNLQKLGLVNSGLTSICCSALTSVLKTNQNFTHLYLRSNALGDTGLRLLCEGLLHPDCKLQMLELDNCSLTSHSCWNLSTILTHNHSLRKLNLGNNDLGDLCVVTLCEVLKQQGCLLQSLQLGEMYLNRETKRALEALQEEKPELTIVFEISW
Chain of NACHT, LRR and PYD domains-containing protein 3 (Q8R4B8 whole entry, the tested form may be a part): as above

Row | IC50 [1] [pM] | inhibition [11] | inhibition [14] | inhibition [17] | inhibition [18] | SMILES | Activity (AML12) | Activity (J774.A1 [2]) [%] | Activity (Mus musculus [3]) [%] | Activity (Mus musculus [4]) | Activity (J774.A1 [5]) | Activity (J774.A1 [6]) [%] | Activity (Mus musculus [7]) [%] | Activity (Mus musculus [8]) [%] | Activity (Mus musculus [9]) [%] | Activity (Mus musculus [10]) [%] | Activity (Mus musculus [12]) [%] | Activity (Mus musculus [13]) [%] | Activity (Mus musculus [15]) | Activity (Mus musculus [16]) [%] | Activity (Mus musculus [19]) [%]
1 | 390 | – | – | – | – | CC(C)(O)c1coc(S(=O)(=O)NC(=O)Nc2c3c(cc4c2CCC4)CCC3)c1 | Non-Toxic | 30 | 33 | Active | Non-Toxic | 30 | – | – | – | – | – | – | – | – | –
2 | 230 | Active | Active | Active | Active | Cc1cc(C)cc(NC(=O)[N-]S(=O)(=O)c2cc(C(C)(C)O)co2)c1.[Na+] | Non-Toxic | 20 | – | – | Non-Toxic | 20 | 65 | 66 | 47 | 52 | 40 | 19 | Active | 33 | 60
